According to US8518952B2, “6 substituted 2-heterocyclylamino pyrazine compounds as CHK-1 inhibitors” (Pfizer Inc., priority 2008, dated 2013):
pEC50, pKi: −log10 of the molar value. Structures can show the parent of a compound that is named as a salt.

How the values were obtained:
Mia Paca-2 cells = assay: Histone H3 (Ser10) phosphorylation ELISA, abrogation of camptothecin-induced G2 arrest (CHK-1 cellular assay); type: cell-based; settings: camptothecin 8 hrs, then compound with nocodozole 16 hours
How it was run: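 HeLa cells, or Mia Paca-2 where marked, were damaged with camptothecin for 8 h, then exposed to compound with nocodazole for 16 h. Mitotic entry was read as phospho-histone H3 (Ser10) by sandwich ELISA, with absorbance at 450 nm. EC50 came from four-parameter sigmoid fitting.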

CHK1 (kinase domain) = biological target: T1, CHK1 (kinase domain) (Homo sapiens, UniProt O14757); assay: CHK1 Ki determination, spectrophotometric coupled (pyruvate kinase/lactate dehydrogenase) assay; type: biochemical; settings: CHK-1 kinase domain; 150 uM ATP, 125 uM Syntide 2
T1 construct: a solution containing 1 nM of CHK1 (kinase domain)
T1 sequence (O14757 9-265 limits assumed): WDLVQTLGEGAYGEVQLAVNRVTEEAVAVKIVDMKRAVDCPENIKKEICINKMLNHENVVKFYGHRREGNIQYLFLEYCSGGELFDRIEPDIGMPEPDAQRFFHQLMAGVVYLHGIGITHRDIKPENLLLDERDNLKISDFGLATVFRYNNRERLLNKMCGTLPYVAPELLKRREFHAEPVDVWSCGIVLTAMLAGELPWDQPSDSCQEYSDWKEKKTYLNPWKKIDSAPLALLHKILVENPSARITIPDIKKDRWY
How it was run: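 The CHK1 kinase domain was pre-incubated with compound for 15 min, and the reaction was started with 125 uM Syntide 2 and 150 uM ATP. ADP formation was coupled through pyruvate kinase/lactate dehydrogenase to NADH oxidation, read as the A340 decrease. Kiapp was fitted with a tight-binding equation that accounts for enzyme concentration and ATP Km; some entries are % inhibition.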

[1] = Homo sapiens, Mia Paca-2 cells (entries marked *)
[2] = Homo sapiens, MIA PaCa-2, Mia Paca-2 cells (entries marked *)
[3] = Mia Paca-2 cells (entries marked *)

Structure (SMILES)	pEC50 (Mia Paca-2 cells; [1])	pKi (CHK1 (kinase domain))	pEC50 (Mia Paca-2 cells; [2])	pEC50 (Mia Paca-2 cells; [3])
c1cn2c(-c3cncc(N[C@@H]4CCCNC4)n3)cnc2cn1 [Example 4, 6-Imidazo[1,2-a]pyrazin-3-yl-N-[(3R)-piperidin-3-yl]pyrazin-2-amine]	7.03	8.11	–	–
c1ccn2c(-c3cncc(N[C@@H]4C[C@@H]5CN[C@H]4C5)n3)cnc2c1 [Example 123, (1S,4R,6R)-N-(6-imidazo[1,2-a]pyridin-3-ylpyrazin-2-yl)-2-azabicyclo[2.2.1]heptan-6-amine]	7.64	8.49	–	–
C[C@H]1NCCC[C@H]1Nc1cncc(-c2cnc3ccc(C(F)(F)F)cn23)n1 [Example 228, N-[(2R,3R)-2-methylpiperidin-3-yl]-6-[6-(trifluoromethyl)imidazo[1,2-a]pyridin-3-yl]pyrazin-2-amine]	–	8.19	7.61	–
O[C@H]1CNC[C@H](Nc2cncc(-c3cnc4ccccn34)n2)C1 [Example 203, (3R,5R)-5-{[6-(imidazo[1,2-a]pyridin-3-yl)pyrazin-2-yl]amino}piperidin-3-ol]	–	8.39	6.87	–
CC1(COc2ccn3c(-c4cncc(N[C@@H]5CCCNC5)n4)cnc3c2)COC1 [Example 155, 6-{7-[(3-methyloxetan-3-yl)methoxy]imidazo[1,2-a]pyridin-3-yl}-N-[(3R)-piperidin-3-yl]pyrazin-2-amine]	7.34	9.00	–	–
C[C@@H]1CNC[C@@H]1Nc1cncc(-c2cnn3ccncc23)n1 [Example 253, N-[(3R,4R)-4-methylpyrrolidin-3-yl]-6-(pyrazolo[1,5-a]pyrazin-3-yl)pyrazin-2-amine, acetate salt]	5.99	7.07	–	–
COC[C@@H]1C[C@@H](Nc2cncc(-c3cnc4ccccn34)n2)CN1 [Example 157, 6-(imidazo[1,2-a]pyridin-3-yl)-N-[(3R,5S)-5-(methoxymethyl)pyrrolidin-3-yl]pyrazin-2-amine]	7.13	7.66	–	–
Clc1cc2ncn(-c3cncc(N[C@@H]4CCCNC4)n3)c2cn1 [Example 254, 6-(6-chloro-3H-imidazo[4,5-c]pyridin-3-yl)-N-[(3R)-piperidin-3-yl]pyrazin-2-amine]	6.27	7.55	–	–
CCOc1ccc2c(c1)ncn2-c1cncc(N[C@@H]2CCCNC2)n1 [Example 214, 6-(5-ethoxy-1H-benzimidazol-1-yl)-N-[(3R)-piperidin-3-yl]pyrazin-2-amine]	7.91	9.03	–	–
CO[C@H]1CCNC[C@@H]1Nc1cncc(-c2cnc3ccccn23)n1 [Example 259, 6-(imidazo[1,2-a]pyridin-3-yl)-N-[(3S,4S)-4-methoxypiperidin-3-yl]pyrazin-2-amine]	–	8.42	–	7.41
C[C@@H]1CCNC[C@@H]1Nc1cncc(-c2cnn3ccccc23)n1 [Example 206, N-[(3R,4R)-4-methylpiperidin-3-yl]-6-(pyrazolo[1,5-a]pyridin-3-yl)pyrazin-2-amine]	6.62	7.32	–	–
COc1ccn2c(-c3cncc(N[C@@H]4CCCNC4)n3)cnc2c1 [Example 37, 6-(7-Methoxyimidazo[1,2-a]pyridin-3-yl)-N-[(3R)-piperidin-3-yl]pyrazin-2-amine]	–	8.69	7.68	–
OC[C@@H]1C[C@@H](Nc2cncc(-c3cnc4ccccn34)n2)CN1 [Example 238, [(2S,4R)-4-{[6-(imidazo[1,2-a]pyridin-3-yl)pyrazin-2-yl]amino}pyrrolidin-2-yl]methanol]	7.06	8.31	–	–
C[C@@H]1CNC[C@@H]1Nc1cncc(-n2cnc3cc(OCC4(C)COC4)ccc32)n1 [Example 234, 6-{5-[(3-methyloxetan-3-yl)methoxy]-1H-benzimidazol-1-yl}-N-[(3R,4R)-4-methylpyrrolidin-3-yl]pyrazin-2-amine]	7.05	8.60	–	–
Cc1ncc(N[C@@H]2CCCNC2)nc1-c1cnc2ccccn12 [Example 247, 6-(imidazo[1,2-a]pyridin-3-yl)-5-methyl-N-[(3R)-piperidin-3-yl]pyrazin-2-amine]	–	6.72	5.95	–
C[C@@H]1CCNC[C@@H]1Nc1cncc(-c2cnc3ccccn23)n1 [Example 204, 6-(imidazo[1,2-a]pyridin-3-yl)-N-[(3R,4R)-4-methylpiperidin-3-yl]pyrazin-2-amine]	–	7.26	7.13	–

Structure (SMILES)	pEC50 (Mia Paca-2 cells; [1])	pKi (CHK1 (kinase domain))	pEC50 (Mia Paca-2 cells; [2])	pEC50 (Mia Paca-2 cells; [3])
CCOC[C@@H]1C[C@@H](Nc2cncc(-c3cnc4cc(C)ccn34)n2)CN1 [Example 241, N-[(3R,5S)-5-(ethoxymethyl)pyrrolidin-3-yl]-6-(7-methylimidazo[1,2-a]pyridin-3-yl)pyrazin-2-amine]	6.70	7.35	–	–
NC(=O)c1ccn2c(-c3cncc(N[C@@H]4CCCNC4)n3)cnc2c1 [Example 86, 3-{6-[(3R)-piperidin-3-ylamino]pyrazin-2-yl}imidazo[1,2-a]pyridine-7-carboxamide]	–	8.77	6.53	–
CCOc1ccc2c(c1)ncn2-c1cncc(N[C@@H]2CCNC2)n1 [Example 217, 6-(5-ethoxy-1H-benzimidazol-1-yl)-N-[(3R)-pyrrolidin-3-yl]pyrazin-2-amine]	7.44	8.16	–	–
Cc1ncc(-c2cnc3ccccn23)nc1N[C@@H]1CCCNC1 [Example 16, 6-(imidazo[1,2-a]pyridin-3-yl)-3-methyl-N-[(3R)-piperidin-3-yl]pyrazin-2-amine]	–	7.71	7.09	–
CO[C@H]1CCNC[C@@H]1Nc1cncc(-c2cnc3ccccn23)n1 [Example 29, 6-imidazo[1,2-a]pyridin-3-yl-N-[(3S,4S)-4-methoxypiperidin-3-yl]pyrazin-2-amine]	–	8.26	–	7.06
COc1cc2ncn(-c3cncc(N[C@@H]4CCCNC4)n3)c2cn1 [Example 18, 6-(6-methoxy-3H-imidazo[4,5-c]pyridin-3-yl)-N-[(3R)-piperidin-3-yl]pyrazin-2-amine]	7.72	8.91	–	–
COC[C@@H]1C[C@@H](Nc2cncc(-c3cnc4cc(Cl)ccn34)n2)CN1 [Example 244, 6-(7-chloroimidazo[1,2-a]pyridin-3-yl)-N-[(3R,5S)-5-(methoxymethyl)pyrrolidin-3-yl]pyrazin-2-amine]	7.22	7.80	–	–
COc1ccn2c(-c3cncc(N[C@@H]4C5CCN(CC5)[C@@H]4C)n3)cnc2c1 [Example 19, (2R,3R)—N-[6-(7-methoxyimidazo[1,2-a]pyridin-3-yl)pyrazin-2-yl]-2-methyl-1-azabicyclo[2.2.2]octan-3-amine]	5.00	6.78	–	–
COC[C@@H]1C[C@@H](Nc2cncc(-c3cnc4ccc(F)cn34)n2)CN1 [Example 266, 6-(6-fluoroimidazo[1,2-a]pyridin-3-yl)-N-[(3R,5S)-5-(methoxymethyl)pyrrolidin-3-yl]pyrazin-2-amine]	6.26	7.10	–	–
N#Cc1ccn2c(-c3cncc(N[C@@H]4CCCNC4)n3)cnc2c1 [Example 24, 3-{6-[(3R)-piperidin-3-ylamino]pyrazin-2-yl}imidazo[1,2-a]pyridine-7-carbonitrile]	–	8.20	6.75	–
CCOc1ccc2c(c1)ncn2-c1cncc(N[C@H]2CN[C@H](COC)C2)n1 [Example 269, 6-(5-ethoxy-1H-benzimidazol-1-yl)-N-[(3R,5S)-5-(methoxymethyl)pyrrolidin-3-yl]pyrazin-2-amine]	7.14	8.01	–	–
c1cn2ncc(-c3cncc(N[C@@H]4CCCNC4)n3)c2cn1 [Example 251, N-[(3R)-piperidin-3-yl]-6-(pyrazolo[1,5-a]pyrazin-3-yl)pyrazin-2-amine, acetate salt]	6.59	8.00	–	–
FC(F)(F)c1ccc2ncc(-c3cncc(NC4CNCCC4(F)F)n3)n2c1 (centres unmarked) [Example 231, N-(4,4-difluoropiperidin-3-yl)-6-[6-(trifluoromethyl)imidazo[1,2-a]pyridin-3-yl]pyrazin-2-amine]	–	7.54	4.70	–
C[C@@H]1NCCC[C@H]1Nc1cncc(-c2cnc3ccc(C(F)(F)F)cn23)n1 [Example 227, N-[(2S,3R)-2-methylpiperidin-3-yl]-6-[6-(trifluoromethyl)imidazo[1,2-a]pyridin-3-yl]pyrazin-2-amine]	–	7.04	6.00	–
COC[C@@H]1C[C@@H](Nc2cncc(-c3cnc4cc(F)ccn34)n2)CN1 [Example 236, 6-(7-fluoroimidazo[1,2-a]pyridin-3-yl)-N-[(3R,5S)-5-(methoxymethyl)pyrrolidin-3-yl]pyrazin-2-amine]	6.32	7.06	–	–
